{"source": "patent US20200078379A1", "about": "“DEFEROXAMINE DERIVATIVES AS MEDICAMENTS” (BIOTECHNOLOGICKY USTAV AV CR, V.V.I., priority 2017, published 2020)", "key": {"[1]": {"system": "MCF7 cells", "experiment": "AnnexinV/PI cell death assay", "type": "cell-based, human", "conditions": "for mean percentage of dead cells (AnnexinV/PI): 48 hrs", "method": "Briefly, cells were seeded in 12-well plate at 100,000 per well, incubated with the selected compounds for 48 hours, then floating cells were spun, adherent cells trypsinized and spun as well followed by the staining with AnnexinV-FITC and PI probes. Cells were then washed with PBS and measured via Fluorescence Activated Sorter."}, "[2]": {"system": "MCF7 cells", "experiment": "individual cell movement, Juli FL and Image J", "type": "cell-based, human", "method": "Additionally, cells seeded identically as in example 26, were treated with 1 to 5 μM concentrations of compound 2 and movie was recorded via the Juli FL system, enabling monitoring of individual movement of cells. The movement was then analyzed by the Image J program to gain the average travelled distance within a specified time. We detected a significant reduction of the total length of travelled trajectory when cells were exposed to compound 2 (Table 12)"}, "[3]": {"system": "tamoxifen-resistant MCF7 (Tam5R)", "experiment": "crystal violet assay, tamoxifen resistant cells", "type": "cell-based", "conditions": "Homo sapiens, grown in 5 μM tamoxifen", "method": "(§1) Compound 1 and compound 2 were tested in their efficacy to kill malignant MCF7 cancer cells. Briefly, 10.000 cells per well were seeded in a 96-well plat on one day and the next day selected compounds were added and incubated with the cells for 48 hrs. The cells were then fixed with 4% paraformaldehyde, stained with 0.05% crystal violet, washed with PBS, and solubilized in 1% SDS. The absorbance of the plate at 595 nm was then measured, quantifying the number of viable cells.\n(§2) To test whether compound 2 is active against resistant cancer cells, we used tamoxifen-resistant MCF7, T47D and BT474 cell lines. The IC50 values were again measured with the crystal violet assay performed as in example 18. We have documented that there is no statistically significant difference in the ability of compound 2 to induce cytostatic and cytotoxic effects between the parental cells sensitive to tamoxifen and the resistant ones that grow even in the presence of tamoxifen (Table 4)."}, "[4]": {"system": "tamoxifen-resistant T47D (Tam5R)", "experiment": "crystal violet assay, tamoxifen resistant cells", "type": "cell-based", "conditions": "Homo sapiens, grown in 5 μM tamoxifen", "method": "as §1, §2"}, "[5]": {"system": "tamoxifen-resistant BT474 (Tam5R)", "experiment": "crystal violet assay, tamoxifen resistant cells", "type": "cell-based", "conditions": "Homo sapiens, BT-474, grown in 5 μM tamoxifen", "method": "as §1, §2"}, "[6]": {"system": "NIH:OVCAR-3 cells", "experiment": "crystal violet assay, cellular viability", "type": "cell-based", "conditions": "Homo sapiens, NIH:OVCAR-3, 48 hours"}, "[7]": {"system": "SK-OV-3 cells", "experiment": "crystal violet assay, cellular viability", "type": "cell-based", "conditions": "Homo sapiens, SK-OV-3, 48 hours"}, "[8]": {"system": "BxPC-3 cells", "experiment": "crystal violet assay, cellular viability", "type": "cell-based", "conditions": "Homo sapiens, BxPC-3, 48 hours"}, "[9]": {"system": "CFPAC-1 cells", "experiment": "crystal violet assay, cellular viability", "type": "cell-based", "conditions": "Homo sapiens, CFPAC-1, 48 hours"}, "[10]": {"system": "murine triple negative breast cancer cell line 4T1", "experiment": "crystal violet assay, cellular viability", "type": "cell-based", "conditions": "Mus musculus, 4T1, 48 hours", "method": "as §1\nA number of compounds of the present invention were tested for cytotoxicity towards at least some of human breast cancer cell lines (MCF7, MDA-MB-231), human fibroblast (BJ) and murine triple negative breast cancer cell line 4T1 (Table 2)."}, "[11]": {"system": "AsPC-1 cells", "experiment": "crystal violet assay, cellular viability", "type": "cell-based", "conditions": "Homo sapiens, ASPC1, AsPC-1, 48 hours"}, "[12]": {"system": "PaTu 8902 cells", "experiment": "crystal violet assay, cellular viability", "type": "cell-based", "conditions": "PaTu 8902, 48 hours"}, "[13]": {"system": "MCF7 cells", "experiment": "cellular respiration, OXYGRAPH instrument", "type": "cell-based, human", "text": "Application of compound 2 leads to marked inhibition of cellular respiration as evidenced by two independent methods: the Oxygraph instrument (Rohlenova, K., Sachaphibulkij, K., Stursa, J., Bezawork-Geleta, A., Blecha, J., Endaya, B., Werner, L., Cerny, J., Zobalova, R., Goodwin, J., Spacek, T., Alizadeh, P. E., Yan, B., Nguyen, M. N., Vondrusova, M., Sobol, M., Jezek, P., Hozak, P., Truksa, J., Rohlena, J., Dong, L. F., & Neuzil, J. (2017) Selective Disruption of Respiratory Supercomplexes as a New Strategy to Suppress Her2high Breast Cancer. Antioxid. Redox. Signal., 26, 84-103) (Table 6) and Seahorse instrument (Table 7). For Seahorse analysis, 20.000 or 30.000 cells were seeded in 96 well plates and incubated with compound 2 for 1 hour. Afterwards, oxygen consumption rate (OCR) and extracellular acidification rate (ECAR) were measured in three cycles of 3 minutes preceded by 3 minutes of mixing, using a Seahorse XFe96 analyzer (Agilent). Results express the mean values of the three cycles."}, "[14]": {"system": "pancreatic cell line BxPC3", "experiment": "dose-effect relationship of drugs and mixtures, crystal violet assay, Median-Effect / Combination index", "type": "cell-based", "method": "(§3) The potentiation of cytotoxic effect of compound 2 in combination with several cytostatics was evaluated. The dose-effect relationship of individual drugs and mixtures of compound 2 with paclitaxel, cis Pt (cis-platin), doxorubicin and fluorouracil was determined on human mammary gland cancer cell line MDA-MB-231 and pancreatic cell line BxPC3 by means of crystal violet assay. The linearized Median-Effect Plot of dose response line provided both parameters (IC50; trend line m(slope) value) of Median-Effect Equation for individual and combination treatment [ref: Theoretical basis, experimental design, and computerized simulation of synergism and antagonism in drug combination studies; Ting-Chao Chou: Pharmacol Rev. 58(3), 2006, 621-81; Erratum in Pharmacol Rev. 2007; 59(1), 124]:\n(§4) Potentiation of combination effect of compound 2 was expressed for concentrations IC50, IC75, IC90, IC95 by calculation of Combination index (CI) applying Combination Index Theorem for mutually exclusive drugs. Overall CI was expressed by means of weighted average of IC50, IC75, IC90, IC95 [ref: Quantitative analysis of dose-effect relationships: the combined effects of multiple drugs or enzyme inhibitors; Ting-Chao Chou, Paul Talalay: Advances in Enzyme Regulation, Volume 22, 1984, Pages 27-55]: […]"}, "[15]": {"system": "human mammary gland cancer cell line MDA-MB-231", "experiment": "dose-effect relationship of drugs and mixtures, crystal violet assay, Median-Effect / Combination index", "type": "cell-based", "conditions": "MDA-MB-231, crystal violet, 48 hours", "method": "as §3, §4"}}, "data": [{"smiles": "CC(=O)N(O)CCCCCNC(=O)CCC(=O)N(O)CCCCCNC(=O)CCC(=O)N(O)CCCCCN(CCCCCCCCCC[P+](c1ccccc1)(c1ccccc1)c1ccccc1)CCCCCCCCCC[P+](c1ccccc1)(c1ccccc1)c1ccccc1.[Cl-].[Cl-]", "note": "[Compound 2, Triphenyl(3,14,25-trihydroxy-2,10,13,21,24-pentaoxo-31-(10-(triphenylphosphonio)decyl)-3,9,14,20,25,31-hexaazahentetracontan-41-yl)phosphonium chloride]", "values": [{"measurement": "mean percentage of dead cells (AnnexinV/PI)", "setting": "[1]; MCF7, 5 μM", "value": 35.6, "unit": "%"}, {"measurement": "mean percentage of dead cells (AnnexinV/PI)", "setting": "[1]; MCF7, 10 μM", "value": 43.7, "unit": "%"}, {"measurement": "mean percentage of dead cells (AnnexinV/PI)", "setting": "[1]; MCF7, 20 μM", "value": 64.0, "unit": "%"}, {"measurement": "percentage of death cells by annexinV/PI staining", "setting": "[1]; MCF7, ratio Ga:compound 2 0:1, 10 μM compound 2 alone", "value": "35.3 (0.5)"}, {"measurement": "speed of the movement", "setting": "[2]; MCF7, 1 μM", "value": "0.16 (0.06) μm*min^−1"}, {"measurement": "travelled distance of an individual cell between frames", "setting": "[2]; MCF7, 1 μM", "value": "4.4 (1.4) μm"}, {"measurement": "speed of the movement", "setting": "[2]; MCF7, 2 μM", "value": "0.13 (0.05) μm*min^−1"}, {"measurement": "travelled distance of an individual cell between frames", "setting": "[2]; MCF7, 2 μM", "value": "3.9 (1.5) μm"}, {"measurement": "speed of the movement", "setting": "[2]; MCF7, 5 μM", "value": "0.12 (0.07) μm*min^−1"}, {"measurement": "travelled distance of an individual cell between frames", "setting": "[2]; MCF7, 5 μM", "value": "3.1 (0.7) μm"}, {"measurement": "IC50", "setting": "[3]", "value": 2.1, "unit": "µM"}, {"measurement": "IC50", "setting": "[4]", "value": 1.2, "unit": "µM"}, {"measurement": "IC50", "setting": "[5]", "value": 4.2, "unit": "µM"}, {"measurement": "IC50", "setting": "[6]", "value": 3.7, "unit": "µM"}, {"measurement": "IC50", "setting": "[7]", "value": 5.1, "unit": "µM"}, {"measurement": "IC50", "setting": "[8]", "value": 1.7, "unit": "µM"}, {"measurement": "IC50", "setting": "[9]", "value": 6.9, "unit": "µM"}, {"measurement": "IC50", "setting": "[10]", "value": 2, "unit": "µM"}, {"measurement": "IC50", "setting": "[11]", "value": 2.6, "unit": "µM"}, {"measurement": "IC50", "setting": "[12]", "value": 5.5, "unit": "µM"}, {"measurement": "mean O2 flow per cells", "setting": "[13]; MCF7, 5 μM", "value": 15.9, "unit": "pmol/s/mL"}, {"measurement": "mean O2 flow per cells", "setting": "[13]; MCF7, 5 μM (5 h)", "value": 9.8, "unit": "pmol/s/mL"}, {"measurement": "mean O2 flow per cells", "setting": "[13]; MCF7, 25 μM", "value": 7.1, "unit": "pmol/s/mL"}, {"measurement": "Median-Effect Plot parameter m (slope)", "setting": "[14]; 48 hours", "value": 1.57}, {"measurement": "IC50", "setting": "[14]; Homo sapiens, BXPC-3, 48 h, read-out: Median-Effect Plot parameter IC50", "value": 4.5, "unit": "µM"}, {"measurement": "IC50", "setting": "[15]; Homo sapiens, Chou-Talalay method, read-out: Median-Effect Plot parameter IC50", "value": 5.89, "unit": "µM"}, {"measurement": "Median-Effect Plot parameter m (slope)", "setting": "[15]", "value": 1.2778}]}]}
